Test results from patent US9732088B2, “C2-carbocyclic iminothiazine dioxides as BACE inhibitors, compositions, and their use” (Merck Sharp & Dohme Corp., priority 2014, dated 2017).

Experiments:
rat Mdr1a (P-gp) = rat Mdr1a (P-gp) (Rattus norvegicus, UniProt Q6PSM0); assay: P-Glycoprotein (P-gp) Efflux Susceptibility Assay; type: in vitro ADME; settings: LLC-PK1, pH 7.4; rat LLC-Mdr1a cells, B-A/A-B Papp ratio at 3 h; method 0.1 μM; read-out: P-gp efflux assay (rMDR1a BAAB)
Description: Assay 6: P-Glycoprotein (P-Gp) Efflux Susceptibility Assay
As P-gp is expressed at the blood-brain-barrier, among other tissues, lower P-gp efflux ratio values are associated with a better ability to cross the blood-brain-barrier to reach the site of BACE-1 expression in the central nervous system. P-gp efflux ratios are measured in cellular assays using cell lines that express P-gp from a number of species including rat, monkey, and human. The following assay was used to measure the rat P-gp efflux ratios, which are believed to be the most sensitive measure of P-gp susceptibility, for the compounds of the invention (test compounds) reported in the tables below.
The bidirectional transport of test compounds was conducted across pig kidney epithelial (LLC-PK1) cell monolayers. Native LLC-PK1 cells were obtained from The Netherlands Cancer Institute (Amsterdam, The Netherlands), and used under a license agreement. LLC-PK1 cells expressing a cDNA encoding rat Mdr1a (rat LLC-Mdr1a) were made in-house by stable transfection of LLC-PK1 cells with a rat MDR1 cDNA. LLC-PK1 and rat LLC-Mdr1a cell lines were cultured in 96-well transwell culture plates. […] Substrate solution (150 μL) was added to either the apical (A) or the basolateral (B) compartment of the culture plate, and buffer (150 μL; HBSS, 10 mM HEPES, pH 7.4) was added to the compartment opposite to that containing the compound. At t=3 h, 50 μL samples were removed from both sides of monolayers dosed with test compound and placed in 96 well plates, internal standard (50 μL 1 μM labetolol) was added to the samples. Samples were analyzed by LC/MS/MS using an Applied Biosystems SCIEX API 5000 triple quadruple mass spectrometry (Concord, ON, Canada) with a TurbolonSpray ion source in the positive ion mode. A Thermo Scientific Transcend LX-2 system (Franklin, Mass.) was coupled to the API 5000 with a flow rate of 800 μL/min to direct sample into the mass spectrometer. A Waters ACQUITY UPLC T3 (2×30 mm, 1.7 μm; Milford, Mass.) column was used for sample analysis. Mobile phase A consisted of 0.1% formic acid in water. Mobile phase B was acetonitrile with 0.1% formic acid. A gradient elution program was utilized where the solvent composition was held at 5% B for 0.25 min, changed from 5% B to 95% B at 0.25 min, and followed by holding at 95% B for 0.5 min, then, went back to 5% B at 0.75 min. The column was then re-equilibrated at the original solvent composition for 0.5 min. Mass spectrometric detection was accomplished by multiple reaction monitoring (MRM) of transitions unique to each compound. Sample concentration was obtained by extrapolation from the standard curve. Verapamil (1 μM) was used as the positive control to assess the functional activity of Pgp. The experiment was performed in triplicate.
The Papp was calculated by the following formula for samples taken at t=3 h:
[formula] where “Volume of Receptor Chamber” is 0.15 mL, “Area of membrane” is 0.11 cm^2, the “Initial Concentration” is the sum of the concentration measured in the donor compartment plus the concentration measured in the receiver compartment at t=3 h, “Δ in Concentration” is the concentration in the receiver compartment at 3 h, and “Δ in Time” is the incubation time (3×60×60=10800 s). Papp was expressed as 10^−6 cm/s.
The Papp reported in the table below is the average of the Papp for transport from A to B and Papp for transport from B to A at t=3 hr.
The B-A/A-B ratio (BAAB) was calculated by dividing the Papp from B to A by the Papp from A to B at t=3 h: […]

HepG2 cells = assay: In Vitro Phospholipidosis Assay; type: cell-based; settings: 20 μM, 24 hours, normalized to DMSO
Text: [formula] Assay 7: In Vitro Phospholipidosis Assay
Drug-induced phospholipidosis (PL) is characterized by intracellular accumulation of phospholipids with lamellular bodies, and may result from impaired phospholipid metabolism in the lysosome (Anderson et al., 2006, FEBS Letter, 580, 5533-5540), and many compounds known to cause drug-induced PL are also associated with adverse drug reactions. Using a method described in the literature (Bhandari et al., 2008, Assay and Drug Dev. Tech., 6(3), 407-419), an in vitro cellular assay can provide data that can determine the PL potential of test compounds. In this assay, compounds that lower values for mean inclusion count of a fluorescent phospholipid (described below) versus control are associated with reduced potential for PL.
HepG2 cells were dispensed into 96-well collagen I coated plates at an initial density of 2.0×10^5 cells in 200 μL complete culturing medium (MEM Media w/Earle's Balanced Salt Solution supplemented with 10 IU penicillin, 10 μg/mL streptomycin, and 10% heat inactivated fetal bovine serum). Cells were incubated overnight at 37° C. with 5% CO2, 89% humidity prior to treatment.
A solution of fluorescently labeled phospholipid N-(7-nitrobenz-2-oxa-1,3-diazol-4-yl)-1,2-dihexadecanoyl-sn-glycero-3-phosphoethanolamine (NBD-PE) was prepared at a concentration of 10 mM in absolute ethanol. Dissolution of the NBD-PE was facilitated by sonication in a room temperature water bath for 30 minutes. NBD-PE medium was prepared by diluting NBD-PE stock to a final concentration of 50 μM in complete culturing medium, filtering (pore size, 0.22 μm) prior to use.
Compound treatment stocks were prepared in dimethyl sulfoxide at 500× final concentrations. Working treatment solutions were prepared by diluting compound stocks into NBD-PE medium with DMSO serving as the vehicle control. Treatment concentration was 20 μM. Amiodarone ((2-{4-[(2-butyl-1-benzofuran-3-yl)carbonyl]-2,6-diiodophenoxy}ethyl)diethylamine) served as the assay positive control at the same concentration. All treatments were tested in triplicate for 24 hours.
Following treatment, cultures were rinsed once with Hank's Balanced Salt Solution (HBSS) containing no phenol red. Cultures were then incubated for 30 minutes at 37° C. with […] Hoechst 33342 nuclear stain and […] cell tracker orange cytoplasm stain. After incubation, cells were rinsed once with HBSS and then fixed in 2% formalin solution.
Cultures were imaged using the IN Cell Analyzer 2000 imaging system. One set of images were acquired with the 4× objective using the appropriate Hoechst filter settings to acquire a full-well cell count. Another set of images were acquired to evaluate treatment-related phospholipidosis with the 20× objective.
Images were analyzed using custom algorithms created in the IN Cell Workstation software using NBD-PE inclusion count in the cell cytoplasm as and endpoint associated with phospholipidosis. Data were expressed as fold over control, normalized to the DMSO vehicle control response.

BACE-1 = BACE-1 (Homo sapiens (Human), UniProt P56817); settings: data reported in US′109; read-out: BACE-1 Ki (nM) (ii) Data reported in US′109; cited from earlier work
Chain of BACE-1 (P56817 46-501, species assumed): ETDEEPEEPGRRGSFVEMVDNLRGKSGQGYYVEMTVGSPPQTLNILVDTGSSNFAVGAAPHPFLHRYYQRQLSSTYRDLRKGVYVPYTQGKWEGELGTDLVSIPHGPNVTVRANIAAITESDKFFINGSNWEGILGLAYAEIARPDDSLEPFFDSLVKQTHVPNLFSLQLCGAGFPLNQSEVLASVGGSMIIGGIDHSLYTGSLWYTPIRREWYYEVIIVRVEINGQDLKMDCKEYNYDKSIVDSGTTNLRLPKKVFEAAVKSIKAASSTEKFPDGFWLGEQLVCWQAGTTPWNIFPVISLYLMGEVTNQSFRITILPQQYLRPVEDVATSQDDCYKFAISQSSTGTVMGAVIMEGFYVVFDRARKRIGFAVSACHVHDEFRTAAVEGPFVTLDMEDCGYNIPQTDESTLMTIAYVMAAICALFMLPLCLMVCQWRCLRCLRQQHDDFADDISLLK

CSF Aβ40 = settings: cited from earlier work
[1] = target: purified human Cathepsin-D (Homo sapiens (Human), UniProt P07339); assay: Cathepsin-D Assay (time-resolved FRET); type: biochemical; settings: Assay 4; Ki calculated from IC50 by Cheng-Prusoff;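 also: Europium-labelled peptide substrate with QSY7 quencher, cleavage read as 620 nm fluorescence after 30 min preincubation then 30 min reaction at 30 °C, pH 5.0, inhibition lowers signal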
Chain of purified human Cathepsin-D (P07339 65-412): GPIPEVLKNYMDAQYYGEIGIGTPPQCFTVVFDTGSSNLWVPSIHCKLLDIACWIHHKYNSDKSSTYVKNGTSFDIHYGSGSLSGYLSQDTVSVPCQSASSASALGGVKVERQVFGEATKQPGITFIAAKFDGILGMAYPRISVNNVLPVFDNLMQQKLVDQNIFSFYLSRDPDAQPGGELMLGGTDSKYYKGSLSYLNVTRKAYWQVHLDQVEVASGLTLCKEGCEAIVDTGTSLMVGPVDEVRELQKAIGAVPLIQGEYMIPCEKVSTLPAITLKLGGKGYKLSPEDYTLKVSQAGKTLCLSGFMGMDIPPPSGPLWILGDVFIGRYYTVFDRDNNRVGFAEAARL
Description: Assay 4: Cathepsin-D Assay
This substrate contains an C-terminal QSY7 moiety that serves as a quencher of the N-terminal Europium fluorophore (620 nm Em). In the absence of enzyme activity, 620 nm fluorescence is low in the assay and increased linearly over 1 hour in the presence of uninhibited Cathepsin-D enzyme. Inhibition of Cathespin D cleavage of the Eu-Aspartyl Protease-QSY7 substrate by inhibitors is manifested as a suppression of 620 nm fluorescence.
Varying concentrations of inhibitors in a volume of 100 nl are preincubated with purified human Cathepsin-D (0.1 nM in 10 μl) for 30 minutes at 30° C. in reaction buffer containing 100 mM Na-Acetate pH 5.0, and 0.02% Brij-35. Reactions are initiated by addition of 10 μl of 100 nM Eu-Aspartyl Protease-QSY7 substrate (50 nM final) to give a final reaction volume of 20 μl in a 384 well Nunc HTRF plate. The reactions are incubated at 30° C. for 30 minutes. The 620 nm fluorescence is then read on a Envision Multilabel plate reader (Perkin-Elmer) using a 200 microsecond delay followed by a 400 microsecond acquisition time window. Inhibitor IC50 values are derived from non-linear regression analysis of concentration response curves.

Chain of rat Mdr1a (P-gp) (Q6PSM0 1-1272): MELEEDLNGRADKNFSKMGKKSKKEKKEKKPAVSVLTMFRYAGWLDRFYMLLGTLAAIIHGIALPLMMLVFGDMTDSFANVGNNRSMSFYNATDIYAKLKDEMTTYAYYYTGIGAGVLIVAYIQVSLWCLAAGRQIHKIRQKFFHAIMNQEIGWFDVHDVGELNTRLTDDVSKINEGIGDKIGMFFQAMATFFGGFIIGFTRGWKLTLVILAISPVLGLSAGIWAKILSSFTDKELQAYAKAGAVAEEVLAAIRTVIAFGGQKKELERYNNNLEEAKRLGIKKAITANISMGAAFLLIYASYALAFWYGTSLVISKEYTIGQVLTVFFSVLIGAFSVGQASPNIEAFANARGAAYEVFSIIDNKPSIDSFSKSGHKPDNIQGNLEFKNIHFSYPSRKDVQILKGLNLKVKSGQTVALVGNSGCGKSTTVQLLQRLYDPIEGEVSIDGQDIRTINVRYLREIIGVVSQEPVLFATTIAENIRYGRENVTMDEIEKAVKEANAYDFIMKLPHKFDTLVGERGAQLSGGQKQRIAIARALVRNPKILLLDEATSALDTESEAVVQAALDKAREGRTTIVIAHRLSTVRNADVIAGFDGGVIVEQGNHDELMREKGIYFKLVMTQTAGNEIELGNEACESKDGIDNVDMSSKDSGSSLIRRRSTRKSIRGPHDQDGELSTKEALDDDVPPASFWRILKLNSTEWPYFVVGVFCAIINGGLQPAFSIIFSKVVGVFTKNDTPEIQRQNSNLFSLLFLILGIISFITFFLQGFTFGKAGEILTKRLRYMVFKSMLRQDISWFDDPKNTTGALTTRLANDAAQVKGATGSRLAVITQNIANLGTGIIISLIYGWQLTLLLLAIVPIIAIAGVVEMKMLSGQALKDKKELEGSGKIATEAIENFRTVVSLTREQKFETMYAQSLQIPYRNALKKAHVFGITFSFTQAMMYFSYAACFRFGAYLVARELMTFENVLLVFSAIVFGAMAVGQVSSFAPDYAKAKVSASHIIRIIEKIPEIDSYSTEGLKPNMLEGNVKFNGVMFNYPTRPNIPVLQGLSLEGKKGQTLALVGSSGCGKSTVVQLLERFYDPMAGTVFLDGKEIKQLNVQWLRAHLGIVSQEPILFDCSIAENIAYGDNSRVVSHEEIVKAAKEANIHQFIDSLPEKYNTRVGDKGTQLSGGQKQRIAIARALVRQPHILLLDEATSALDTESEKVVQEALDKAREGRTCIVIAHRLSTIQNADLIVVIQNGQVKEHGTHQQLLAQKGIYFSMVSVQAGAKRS

SMILES | efflux ratio at 3 h (rat Mdr1a (P-gp)) | In Vitro Phospholipidosis Assay: Mean NBD-PE Inclusion Count (Fold over control) (HepG2 cells) | Ki (BACE-1) [nM] | Aβ reduction in vivo in rat (Δ% CSF Aβ40 @ 10 mpk) (ii) Data reported in US′109 (CSF Aβ40) [%] | Ki [1] [nM]
COc1cnc2c(Nc3ccc(F)c([C@]4(C)CS(=O)(=O)C(C)(C)C(N)=N4)c3)nccc2n1 [Ex 47 of WO2014059185, reference compound] | 7.9 | 13 | 2.9 | −82 | 
C[C@@]1(c2nc(Nc3nccc4cc(C#N)cnc34)ncc2F)CS(=O)(=O)[C@@](C)(C2CC2)C(N)=N1 [Example 5, 8-({4-[(3R,6S)-6-cyclopropyl-5-imino-3,6-dimethyl-1,1-dioxidothiomorpholin-3-yl]-5-fluoropyrimidin-2-yl}amino)-1,7-naphthyridine-3-carbonitrile] | 31 | 1.3 |  |  | 710
COc1cnc2c(Nc3cc([C@]4(C)CS(=O)(=O)[C@@](C)(C5CC5)C(N)=N4)c(F)cn3)nccc2c1 [Example 6, N-{4-[(3R,6S)-6-cyclopropyl-5-imino-3,6-dimethyl-1,1-dioxidothiomorpholin-3-yl]-5-fluoropyridin-2-yl}-3-methoxy-1,7-naphthyridin-8-amine] | 1.5 | 3.1 |  |  | > 9400
COc1cnc2c(Nc3ccc(F)c([C@]4(C)CS(=O)(=O)[C@@](C)(C5CC5)C(N)=N4)c3)nccc2c1 [Example 14, N-{3-[(3R,6S)-6-cyclopropyl-5-imino-3,6-dimethyl-1,1-dioxidothiomorpholin-3-yl]-4-fluorophenyl}-3-methoxy-1,7-naphthyridin-8-amine] | 2.9 |  |  |  | 1650
C[C@@]1(c2cc(Nc3ncnc4cc(C#N)cnc34)ccc2F)CS(=O)(=O)[C@@](C)(C2CC2)C(N)=N1 [Example 16, 4-({3-[(3R,6S)-6-cyclopropyl-5-imino-3,6-dimethyl-1,1-dioxidothiomorpholin-3-yl]-4-fluorophenyl}amino)pyrido[3,2-d]pyrimidine-7-carbonitrile] | 31 |  |  |  | 2450
C[C@@]1(c2cc(Nc3nccc4cc(C#N)cnc34)ccc2F)CS(=O)(=O)[C@@](C)(C2CC2)C(N)=N1 [Example 18, 8-({3-[(3R,6S)-6-cyclopropyl-5-imino-3,6-dimethyl-1,1-dioxidothiomorpholin-3-yl]-4-fluorophenyl}amino)-1,7-naphthyridine-3-carbonitrile] | 11 |  |  |  | 651
COc1cnc2c(Nc3ccc(F)c([C@]4(C)CS(=O)(=O)[C@@](C)(C5CC5)C(N)=N4)c3)ncnc2n1 [Example 22, (2S,5R)-2-cyclopropyl-5-(2-fluoro-5-((7-methoxypteridin-4-yl)amino)phenyl)-3-imino-2,5-dimethylthiomorpholine 1,1-dioxide] | 26 | 0.9 |  |  | > 9400
